# Test results taken from patent publication US20110091375A1, “USE OF THE COMBINATION COMPRISING TEMOZOLOMIDE AND TNF-ALPHA FOR TREATING GLIOBLASTOMA” (THE UNIVERSITY OF CHICAGO, priority 2004, published 2011).
# Where a SMILES comes first, the peptide text is derived from it. The star is where a group is joined. Cbz = O=C(OCc1ccccc1)*; CH2F = FC*
# Columns and labels:
# Format in all cases: cell-based, human
# U87 cells [1] = assay: Measurement of superoxide production (hydroethidine oxidation); conditions: P<0.05 vs TNFα+TMZ
# Protocol: U87 cells were plated at a density of 10^6 cells in flat-bottom 6-well tissue culture plates, incubated overnight and treated as indicated in the figure legend. Cells were then washed, resuspended in PBS and 1 μL of 10 mM hydroethidine (HE) per mL cell suspension (10 μM final concentration) was added and incubated for 5 m at 37° C. Cells were harvested and analyzed on a flow cytometer (FACSort; BD Biosciences) with excitation at 488 nm and emission collected using a 620-670 nm […] long-pass filter. Data was analyzed by Flowjo software.
# U87 cells [2] = assay: Flow cytometric analysis of apoptosis (fractional DNA content, annexin V binding)
# Protocol: Fractional DNA content: U87 cells (10^5) were plated overnight at 37° C. with 5% CO2. The cells were then treated with TNFα (10 ng/mL) and/or TMZ (100 μM). At 72 h the cells were washed in PBS and fixed in ice-cold 70% (v/v) ethanol. The cells were washed twice and incubated in RNase (1 mg/mL) for 30 m at 37° C., then incubated in propidium iodide (PI) solution (100 ug/mL) for […] at 4° C. Flow cytometric analysis was performed on a FACSort instrument (Becton Dickinson Immunocytometry Systems, San Jose, Calif.), and the data were analyzed using the CellQuest software (Becton Dickinson).
# Annexin V binding (van Engeland, M. et al. (1998) Cytometry 31(1):1-9): At 72 h cells were washed in PBS and incubated in the dark for 15 m with binding buffer containing 5 μl of Annexin V-FITC and 5 μl of PI (Annexin V-FITC apoptosis detection kit II). The data was analyzed by Flowjo analysis software (Tree Star Inc., Ashland, Oreg.).
# Cells were either un-transfected or co-transfected with pRC-CMV-p65 or pRC-CMV in the presence of a GFP plasmid at a ratio of 4:1. Under these conditions, cells expressing GFP also expressed the co-transfected plasmid (Tang, F. et al. (2002) Mol Cell Biol 22:8571-8579). Cells were then left untreated or treated as described in the figure legends. At 72 h cells were washed in PBS and incubated in the dark for 15 m with binding buffer containing 5 μl of Annexin V-FITC and 5 μl of Propidium iodide (PI). In transfected cells, annexin V binding was assessed in GFP positive cells. Data was analyzed by Flowjo analysis software (Tree Star Inc., Ashland, Oreg., USA) as described in U.S. Provisional Application No. 60/604,251 (Yamini, B. et al. (2004) Cancer Res 64:6381-6384).
# JNK = JNK phosphorylation (activation), Western blot
# Protocol: (§1) 20 μg of whole U87 cell (or nuclear) lysate was subjected to sodium dodecyl sulfate (SDS)-polyacrylamide gel electrophoresis (PAGE). Following electro-transfer, Immobilon-P membranes (Millipore Corp. Burlington, Mass., USA.) were probed with primary polyclonal antibody against IκBα, phospho-Ser32-IκBα, SAPK/JNK, phospho-Thr183/Tyr185-SAPK/JNK, p65, phospho-Ser536-p65 (Cell Signaling Technology Inc. Beverly, […]., USA) diluted 1:1000 overnight at 4° C. Anti-rabbit IgG HRP-linked secondary antibody (Cell Signaling Technology) was diluted 1:1000 in blocking buffer and applied for 1 h at room temperature. Immunoreactive bands were detected by SuperSignal enhanced chemiluminescence (ECL) (Pierce, Rockford, Ill., USA) and exposed to Kodak X-Omat film.
# U87 cells [3] = assay: U87 cell viability (Trypan Blue dye exclusion, MTS)
# Protocol: Trypan Blue dye exclusion method was employed. 10^4 U87 cells were plated and incubated at 37° C. overnight. Subsequently, the cells were contacted with media containing TNFα (10 ng/mL) and/or TMZ (100 μM), incubated for 3 h, and washed. […] All of the studies were performed in triplicate.
# IκBα = assay: TNFα-induced IκBα degradation and phosphorylation (Western blot / kinase assay); conditions: at 15 m, TNFα with or without TMZ pretreatment
# Protocol: Cells were then washed with 10 mL ice-cold PBS, scraped from the dish, and pelleted by centrifugation at 1000 rpm for 5 m at 4° C. Cell pellets were resuspended in 400 μl of ice-cold buffer A (10 mM HEPES, pH 7.9; 10 mM KCl; 0.1 mM EDTA; 1 mM DTT; 0.5 mM phenylmethysulfonylfluoride [PMSF]; 1 μg/mL leupeptin; 5 μg/mL aprotinin) and allowed to swell on ice for 15 m. Following the addition of 25 μl of 10% NP-40, the suspension was vortexed for 10 s and centrifuged at 14,500 rpm for 1 m at 4° C. Nuclei were resuspended in 50 μl of ice-cold buffer B (20 mM HEPES, pH 7.9; […]; 1 mM EDTA; 1 mM DTT; 1 mM PMSF; 25% glycerol; 1 μg/mL leupeptin; 5 μg/mL aprotinin) and incubated on ice for 15 m. The nuclear suspension was then centrifuged at 14,500 rpm for 5 m at 4° C. and the supernatant containing the nuclear proteins was transferred to a clean tube. Protein concentrations for each sample were determined by the Bradford method (Bio-Rad, Richmond, Calif., USA) and were adjusted to 2 μg/μl by the addition of buffer B.
# as §1
# IκK was immunoprecipitated from treated U87 cell extracts with anti-IKKβ antibody, (Santa Cruz Biotechnology, Santa Cruz, Calif., USA). […] Kinase activity was quantified using a Phosphoimager and Equal protein loading determined by immunoblotting with anti-IκKβ antibody (Upstate USA, Charlottesville, Va., USA). […]
# [4] = pretreatment before TMZ and TNFα
molecule,measurement,setting,value
"CC(=O)N[C@@H](CS)C(=O)O [NAC, N-acetylcystein]","increase in O2^.− induced by TMZ and TNFα, NAC pretreatment",U87 cells [1],significantly inhibited
same,"effect on cell death, pretreatment alone",U87 cells [2]; U87,minimal effects
same,"apoptosis induced by combination TMZ and TNFα, inhibitor pretreatment","U87 cells [2]; annexin V binding, U87, P<0.01 vs TNFα+TMZ",significantly reversed
same,reduction of delayed JNK activation induced by combination TMZ and TNFα,"JNK; U87, NAC pretreatment",1.7 fold
same,"transient JNK activation, NAC pretreatment","JNK; U87, TMZ and TNFα",without affecting
COC(=O)C[C@H](NC(=O)[C@H](C)NC(=O)[C@@H](NC(=O)OCc1ccccc1)C(C)C)C(=O)CF [zVAD] (Cbz-Val-Ala-Asp(OMe)-CH2F),"cytotoxicity induced by combined treatment with TMZ and TNFα, inhibitor pretreatment",U87 cells [3]; [4],completely reversed
same,"JNK activation induced by TMZ and TNFα, inhibitor pretreatment",JNK; [4],did not inhibit
TNFα,effect on U87 cell viability,U87 cells [3]; 10 ng/mL TNFα and/or 100 μM TMZ,Minimal effects
same,U87 cell apoptosis (sub-G1 hypodiploid/apoptotic peak),"U87 cells [2]; fractional DNA content, 72 h, TNFα 10 ng/mL and/or TMZ 100 μM",minimal effect
same,JNK phosphorylation (activation),JNK; glioma cells,transiently increased
same,degradation of IκBα,IκBα,complete degradation
